Laboratory results as given in PubChem BioAssay (NCI).
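Assay format: 96-well plates, 48-hour exposure. GI50: concentration for 50% inhibition of growth. TGI: concentration producing complete growth inhibition.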

Experiments:
Experiment in all cases: growth of human tumour cells (NCI), 48 h
HCT-15 colon = test system: HCT-15 colon
CAKI-1 renal = test system: CAKI-1 renal
MALME-3M melanoma = test system: MALME-3M melanoma
IGROV1 ovarian = test system: IGROV1 ovarian
SK-MEL-2 melanoma = test system: SK-MEL-2 melanoma
HOP-62 NSCLC = test system: HOP-62 NSCLC
KM12 colon = test system: KM12 colon
NCI-H23 lung = test system: NCI-H23 lung
LOX IMVI melanoma = test system: LOX IMVI melanoma
OVCAR-8 ovarian = test system: OVCAR-8 ovarian

Row | Structure (SMILES) | TGI (HCT-15 colon) | TGI (CAKI-1 renal) | TGI (MALME-3M melanoma) | TGI (IGROV1 ovarian) | TGI (SK-MEL-2 melanoma) | TGI (HOP-62 NSCLC) | TGI (KM12 colon) | TGI (NCI-H23 lung) | TGI (LOX IMVI melanoma) | TGI (OVCAR-8 ovarian) | GI50 (HCT-15 colon) | GI50 (CAKI-1 renal) | GI50 (MALME-3M melanoma) | GI50 (IGROV1 ovarian) | GI50 (SK-MEL-2 melanoma) | GI50 (HOP-62 NSCLC) | GI50 (KM12 colon) | GI50 (NCI-H23 lung) | GI50 (LOX IMVI melanoma) | GI50 (OVCAR-8 ovarian)
1 | C=CCn1cc(C(=O)NC(=O)NCCCCCOC(=O)CCCCCCCCCCC(=O)OCCCCCNC(=O)NC(=O)c2cn(CC=C)c(=O)n(C)c2=O)c(=O)n(C)c1=O | > 100 µM | > 100 µM | > 100 µM | > 100 µM | > 100 µM | > 100 µM | > 100 µM | > 100 µM | > 100 µM | > 100 µM |  |  |  |  |  |  |  |  |  | 
2 | CC(=O)/C=C/c1ccc(C)cc1 | > 100 µM | > 100 µM | > 100 µM | > 100 µM | > 100 µM | > 100 µM | > 100 µM | > 100 µM | > 100 µM | > 100 µM |  |  |  |  |  |  |  |  |  | 
3 | COc1ccccc1/C=C/C(=O)/C=C/c1ccccc1OC | 10.5 µM | 7.94 µM | 4.35 µM | 3.2 µM | 4.95 µM | 6.92 µM | 3.39 µM | 3.92 µM | 3.01 µM | 8.88 µM | 2.27 µM | 3.16 µM | 2.11 µM | 1.6 µM | 2.29 µM | 3 µM | 1.57 µM | 1.75 µM | 1.53 µM | 2.58 µM
4 | C=C1C(=O)O[C@H]2[C@H]1CC/C(Cn1cc(-c3cc(C)c(C)cc3C)nn1)=C\CC[C@@]1(C)O[C@@H]21 | 0.548 µM | 2.39 µM | 3 µM | 2.74 µM | 3.59 µM | 3.97 µM | 6.62 µM | 3.99 µM | 2.1 µM | 2.38 µM | 0.201 µM | 1.08 µM | 1.43 µM | 1.29 µM | 1.75 µM | 1.77 µM | 2.31 µM | 1.77 µM | 0.725 µM | 0.927 µM
5 | Cc1[nH]nc2c1N=C(c1ccccc1Cl)c1cc([N+](=O)[O-])ccc1N2 | > 25 µM | > 22.2 µM | > 25 µM | > 25 µM | > 25 µM | > 25 µM | > 13.7 µM | > 25 µM | > 25 µM | > 25 µM | 0.198 µM | 2.12 µM | > 25 µM | > 8.07 µM | 0.126 µM | 1.02 µM | 0.338 µM | 5.06 µM | 1.92 µM | > 25 µM
6 | O=C1NN(c2ccccc2)C(=O)/C1=C/c1ccc(Br)o1 | 24.7 µM | 20.8 µM | 0.972 µM | 35 µM | 44.7 µM | 21.4 µM | 24 µM | 36.1 µM | 22.4 µM | 41.6 µM | 10.1 µM | 5.8 µM |  | 5.19 µM | 15.8 µM |  | 9.71 µM | 15.6 µM | 5.42 µM | 11 µM
7 | NC1=Nc2cc(OCCCN3Cc4ccccc4C3)c(OCC3CC3)cc2C12CCCC2 | 6.51 µM | 11.3 µM | 3.26 µM | 17.2 µM | 4.7 µM | 11.5 µM | 15.5 µM | 12.9 µM | 2.91 µM | 13.9 µM | 2.1 µM | 2.31 µM | 1.73 µM | 4.17 µM | 2.35 µM | 3.45 µM | 4.04 µM | 3.61 µM | 1.51 µM | 3.71 µM
8 | Cc1c2c(cc3c(=O)ccn(CCN(C)C)c13)c(=O)ccn2CCN(C)C | 24.1 µM | 67.8 µM | 69.1 µM | 37 µM | 44.4 µM | 29.1 µM | 13.9 µM | 33.9 µM | 25.3 µM | 21.8 µM |  |  |  |  |  |  |  |  |  | 
9 | C=CC1=C(C)C2=NC1=CC1=NC(=CC3=C(C)C4=C(O)C(C(=O)OC)C(=C5NC(=C2)C(C)C5CCC(=O)OC)C4=N3)C(CC)=C1C (stereo unspecified) | > 100 µM | > 100 µM | > 100 µM | > 100 µM | > 100 µM | > 100 µM | > 100 µM | > 100 µM | > 100 µM | > 100 µM |  |  |  |  |  |  |  |  |  | 
10 | CCOP(=O)(OCC)C1=NC=CC=CC1n1c(-c2ccccc2)nn(CC)c1=O (stereo unspecified) | > 100 µM | > 100 µM | > 100 µM | > 100 µM | > 100 µM | > 100 µM | > 100 µM | > 100 µM | > 100 µM | > 100 µM |  |  |  |  |  |  |  |  |  | 
11 | Cc1cc(N(CCCl)CCCl)ccc1/C=N/NC(=O)Cc1cc(=O)oc2cc(O)ccc12 | > 100 µM | 26.3 µM | 27.7 µM | 40.7 µM | > 100 µM | 39.7 µM | 36.6 µM | 58.6 µM | 26.7 µM | > 100 µM |  |  |  |  |  |  |  |  |  | 
12 | O=c1c2cccnc2ncn1CCN1CCCC1 |  | > 100 µM | > 100 µM | > 100 µM | > 100 µM | > 100 µM | > 100 µM | > 100 µM | > 100 µM | > 100 µM |  |  |  |  |  |  |  |  |  | 
13 | Cc1nc(C(N)=S)sc1C(=O)C/C(=N/N)C(=O)Nc1ccc(Cl)cc1 |  | > 100 µM | > 100 µM | > 100 µM | > 100 µM | > 100 µM | > 100 µM | > 100 µM | > 100 µM | > 100 µM |  |  |  |  |  |  |  |  |  | 
14 | C1COCCOCCOCCOCCO1.CC(=O)[CH-]C(C)=O.CC(=O)[CH-]C(C)=O.CC(=O)[CH-]C(C)=O.[V] | 57.9 µM | 33.2 µM | 16.4 µM | 22.5 µM | 26 µM |  | 37 µM | 31.6 µM | 29.6 µM | 76.3 µM | 20.7 µM | 15 µM | 2.99 µM | 4.79 µM | 10.8 µM |  | 16.8 µM | 15.6 µM | 15.1 µM | 30.6 µM
15 | c1ccc(COC2(OCc3ccccc3)CC3OC2C2NN=NC32)cc1 (stereo unspecified) | 90.6 µM | > 100 µM | 52.6 µM | 76.3 µM | > 10 µM | > 100 µM | 80.7 µM | 34.3 µM | 36.5 µM |  |  |  |  |  |  |  |  |  |  | 
16 | Cc1ccc(Sc2sc(-c3ccccc3)nc2[P+](c2ccccc2)(c2ccccc2)c2ccccc2)cc1 | 1.14 µM | 1.04 µM | 0.92 µM |  | 0.808 µM | 1.18 µM | 1.09 µM | 0.811 µM | 0.901 µM | 1.67 µM | 0.3 µM | 0.329 µM | 0.27 µM |  | 0.275 µM | 0.296 µM | 0.314 µM | 0.27 µM | 0.276 µM | 0.305 µM
